Measurements as given in paper PMC3800558 (Insect biochemistry and molecular biology, 2013).

Experiments:
[1] = biological target: T1, CquiOR99 (Culex quinquefasciatus, UniProt W0HIQ7); assay type: cell-based
T1 sequence (W0HIQ7 1-389): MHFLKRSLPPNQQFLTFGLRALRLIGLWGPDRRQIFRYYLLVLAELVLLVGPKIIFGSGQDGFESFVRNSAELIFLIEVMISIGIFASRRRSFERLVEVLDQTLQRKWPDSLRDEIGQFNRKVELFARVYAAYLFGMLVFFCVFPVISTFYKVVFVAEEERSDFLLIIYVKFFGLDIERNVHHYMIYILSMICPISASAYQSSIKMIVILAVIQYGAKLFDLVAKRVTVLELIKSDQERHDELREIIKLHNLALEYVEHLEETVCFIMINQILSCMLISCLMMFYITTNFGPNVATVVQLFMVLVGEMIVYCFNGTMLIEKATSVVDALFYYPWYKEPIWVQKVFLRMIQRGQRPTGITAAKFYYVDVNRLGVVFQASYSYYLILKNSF
T1 sequence (Q309I4 1-480 partner): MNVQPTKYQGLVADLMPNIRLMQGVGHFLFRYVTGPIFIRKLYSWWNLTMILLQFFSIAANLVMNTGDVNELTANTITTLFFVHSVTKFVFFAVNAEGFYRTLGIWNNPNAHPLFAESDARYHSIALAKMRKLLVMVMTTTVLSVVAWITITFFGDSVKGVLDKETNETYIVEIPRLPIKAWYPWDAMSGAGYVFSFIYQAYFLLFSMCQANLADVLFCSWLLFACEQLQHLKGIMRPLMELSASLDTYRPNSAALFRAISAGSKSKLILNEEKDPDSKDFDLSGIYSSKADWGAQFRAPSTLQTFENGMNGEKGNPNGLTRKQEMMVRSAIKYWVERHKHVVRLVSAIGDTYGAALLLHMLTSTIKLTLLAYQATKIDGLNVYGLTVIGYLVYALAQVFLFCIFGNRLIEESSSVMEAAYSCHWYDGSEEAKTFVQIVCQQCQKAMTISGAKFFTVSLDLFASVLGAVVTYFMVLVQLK

[2] = biological target: T2, CquiOR37 (Culex quinquefasciatus, UniProt W0HHK8); assay type: cell-based
T2 sequence (W0HHK8 1-385): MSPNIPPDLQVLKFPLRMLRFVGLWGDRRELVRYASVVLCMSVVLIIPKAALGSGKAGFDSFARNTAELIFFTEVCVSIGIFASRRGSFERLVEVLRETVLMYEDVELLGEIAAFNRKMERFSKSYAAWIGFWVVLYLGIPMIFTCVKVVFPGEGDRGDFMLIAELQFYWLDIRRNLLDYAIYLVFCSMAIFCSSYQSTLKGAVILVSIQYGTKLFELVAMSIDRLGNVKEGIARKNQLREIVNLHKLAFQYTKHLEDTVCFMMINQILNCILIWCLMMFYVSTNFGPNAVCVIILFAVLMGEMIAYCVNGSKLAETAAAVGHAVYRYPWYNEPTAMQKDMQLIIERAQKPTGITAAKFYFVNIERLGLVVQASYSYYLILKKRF
T2 sequence (Q309I4 1-480 partner): T1 sequence (Q309I4 1-480 partner)

Row | SMILES | EC50 [1] | EC50 [2]
1 | CCc1ccc(O)cc1 [4-ethylphenol] | 0.74 µM | 18.2 µM
2 | Cc1ccc(O)cc1 [4-methylphenol] | 14.4 µM | 6.4 µM
